Data on five molecules can be found in patent US4477464A, “Hetero-benzazepine derivatives and their pharmaceutical use” (Ciba-Geigy Corporation, priority 1983, dated 1984).

Where a name gives a salt, the structure may show the parent alone.

In general, IC50 refers to the midpoint of a concentration-inhibition curve.

Assay [1] concerns the target T1, angiotensin-converting enzyme (Oryctolagus cuniculus, UniProt P12822).
T1 construct: angiotensin-converting enzyme preparation (from lungs of adult male rabbits); from tissue; host or cells: lungs of adult male rabbits
T1 sequence (P12822 34-1310): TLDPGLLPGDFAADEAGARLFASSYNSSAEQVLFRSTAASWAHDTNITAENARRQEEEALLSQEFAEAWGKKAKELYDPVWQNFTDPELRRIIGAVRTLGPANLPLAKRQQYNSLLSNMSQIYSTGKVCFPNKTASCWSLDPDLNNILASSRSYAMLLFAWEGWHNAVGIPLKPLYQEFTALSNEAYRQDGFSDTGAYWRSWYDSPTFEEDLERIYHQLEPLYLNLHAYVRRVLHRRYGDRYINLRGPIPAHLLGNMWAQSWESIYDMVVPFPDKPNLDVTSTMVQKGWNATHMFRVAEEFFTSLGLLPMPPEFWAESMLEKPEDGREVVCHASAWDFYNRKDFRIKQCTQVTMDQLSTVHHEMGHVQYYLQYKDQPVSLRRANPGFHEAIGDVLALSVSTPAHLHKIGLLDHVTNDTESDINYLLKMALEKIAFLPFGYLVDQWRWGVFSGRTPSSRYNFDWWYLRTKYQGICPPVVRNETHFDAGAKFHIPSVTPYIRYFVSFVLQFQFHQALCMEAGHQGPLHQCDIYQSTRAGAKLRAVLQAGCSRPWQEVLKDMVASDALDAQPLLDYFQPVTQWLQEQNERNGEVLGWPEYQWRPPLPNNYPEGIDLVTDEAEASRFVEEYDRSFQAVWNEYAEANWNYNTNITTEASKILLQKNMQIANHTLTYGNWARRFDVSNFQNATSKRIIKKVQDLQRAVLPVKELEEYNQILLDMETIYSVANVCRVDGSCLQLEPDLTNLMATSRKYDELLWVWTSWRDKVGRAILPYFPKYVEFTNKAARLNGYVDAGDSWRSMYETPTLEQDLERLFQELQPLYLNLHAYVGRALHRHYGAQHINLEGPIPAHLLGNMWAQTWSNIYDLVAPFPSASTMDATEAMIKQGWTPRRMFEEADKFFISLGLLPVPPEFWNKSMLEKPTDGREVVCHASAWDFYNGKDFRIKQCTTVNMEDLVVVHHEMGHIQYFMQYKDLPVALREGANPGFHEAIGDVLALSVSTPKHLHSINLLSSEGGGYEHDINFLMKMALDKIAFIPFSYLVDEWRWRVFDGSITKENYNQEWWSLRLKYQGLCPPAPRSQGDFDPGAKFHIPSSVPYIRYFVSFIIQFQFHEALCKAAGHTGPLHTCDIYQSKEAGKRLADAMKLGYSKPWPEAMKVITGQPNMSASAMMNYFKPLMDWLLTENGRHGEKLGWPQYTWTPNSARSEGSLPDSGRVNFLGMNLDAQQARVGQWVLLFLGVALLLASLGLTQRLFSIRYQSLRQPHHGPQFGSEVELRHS
Kind of assay: in vitro inhibition of angiotensin-converting enzyme (hippuryl-histidyl-leucine substrate). It is filed as biochemical, rabbit. As to conditions: angiotensin-converting enzyme preparation from lungs of adult male rabbits, 37° C., 30 minutes. Here is the method: Biophys. Acta 293, 451 (1973). According to this method, said compounds are dissolved at about 1 mM concentration in phosphate buffer. To 100 microliters of solutions of the test compound in phosphate buffer, diluted to the desired concentration, are added 100 microliters of 5 mM hippuryl-histidyl-leucine in phosphate buffer, followed by 50 microliters of the angiotensin-converting enzyme preparation (from lungs of adult male rabbits) in Tris buffer, containing potassium and magnesium chloride, as well as sucrose. Said solutions are incubated at 37° C. for 30 minutes and combined with 0.75 ml of 0.6N aqueous sodium hydroxide to stop further reaction. Then 100 microliters of a 0.2% solution of o-phthalaldehyde in methanol are added at room temperature, and 10 minutes later 100 microliters of 6N hydrochloric acid. These samples are read against water in a spectrophotometer set at 360 nm, and the optical densities thereof estimated. They are corrected for the standard curve via a conversion factor expressing nanomoles of histidyl-leucine formed during said 30 minute incubation period. The results are plotted against drug concentration to determine the IC50, i.e., the drug concentration which gives half the activity of the control sample containing no drug.

Assay [2] has as its system angiotensin-converting enzyme. The assay can be described thus: inhibition of Angiotensin I induced pressor response in normotensive rats. As to conditions: normotensive anesthetized rats, 10 mg/kg p.o., measured 2 to 4 hours after administration. The class given is in vivo, rat. As to the method:
Angiotensin I is hydrolyzed by the action of said converting enzyme to the potent pressor substance Angiotensin II. The inhibition of said enzyme prevents the generation of Angiotensin II from I and, therefore, attenuates any pressor response following an Angiotensin I challenge.
The corresponding in vivo test is performed with male, normotensive rats, which are anesthetized with sodium 5-ethyl-5-(1-methylpropyl)-2-thiobarbiturate. A femoral artery and saphenous vein are cannulated respectively for direct blood pressure measurement and the i.v. administration of Angiotensin I and a compound of this invention. After the basal blood pressure is stabilized, pressor responses to 3 challenges of 333 ng/kg angiotensin I i.v., at 5 minute intervals, are obtained. Such pressure responses are usually again obtained at time intervals after i.v. or p.o. administration of the compound to be tested, and compared with the initial responses. Any observed decrease of said pressor response is an indication of Angiotensin I converting enzyme inhibition. Illustrative of this invention, the compound of example 3a inhibits the pressor response following angiotensin I challenge by about 70% at a dose of 10 mg/kg p.o. as measured 2 to 4 hours after administration.

Assay [3] has as its system spontaneously hypertensive rats. The assay can be described thus: antihypertensive effect in spontaneously hypertensive rats, indirect systolic pressure. The class given is in vivo, rat. As to conditions: 10 mg/kg p.o. Here is the method: The in vivo lowering effect on the blood pressure is recorded, either directly by means of a catheter, placed in the test animal's femoral artery, or indirectly by sphygmomanometry at the rat's tail or a transducer. The blood pressure is recorded in mm Hg prior to and after dosing.
Thus the antihypertensive effects are demonstrable in spontaneously hypertensive rats by indirect measurement of systolic pressure. Conscious rats are placed individually in restraint cages within a gently warmed chamber. A rubber pulse sensor is placed distal to an inflatable occlusive cuff on each rat's tail. The cuff is periodically inflated to occlude the tail artery, and systolic pressure is recorded as the point where the first discernible pulse emerges along the decaying calibrated pressure curve. After obtaining control values of blood pressure and heart rate, test compounds are administered orally once daily for 4 consecutive days. Additional blood pressure measurements are usually made at 2.0, 4.0 and 23.5 hours after each daily dosing, and responses are compared to those of rats dosed with the treatment vehicle.
Illustrative of the invention, the compound of example 3a at a dose of 10 mg/kg p.o. lowers blood pressure by about 35 mm Hg.

`O=C(O)CN1C(=O)[C@@H](N[C@@H](CCc2ccccc2)C(=O)O)C[S+]([O-])c2ccccc21` (stereo partly drawn) [Example 12, (3R)-{N-[(1S)-carboxy-3-phenylpropyl]amino}-5-carboxymethyl-2,3-dihydro-1-oxo-1,5-benzothiazepin-4(5H)-one] registered an IC50 in assay [1] of roughly 6 nM.

As to `O=C(O)CN1C(=O)[C@@H](N[C@@H](CCc2ccccc2)C(=O)O)CSc2ccccc21` [Example 6, (3R)-{N-[(1S)-carboxy-3-phenylpropyl]amino}-5-carboxymethyl-2,3-dihydro-1,5-benzothiazepin-4(5H)-one], the IC50 in assay [1] is roughly 3 nM.

Molecule `NCCCCC(N[C@H]1CSc2ccccc2N(CC(=O)O)C1=O)C(=O)O` (stereo partly drawn) [Example 14, (3R)-[N-(1-carboxy-5-aminopentyl)amino]-5-carboxymethyl-2,3-dihydro-1,5-benzothiazepin-4(5H)-one dihydrochloride] registered an IC50 in assay [1] of roughly 28 nM.

`CCOC(=O)[C@H](CCc1ccccc1)N[C@H]1CSc2ccccc2N(CC(=O)O)C1=O` [Example 3a, (3R)-{N-[(1S)-carboethoxy-3-phenylpropyl]amino}-5-carboxymethyl-2,3-dihydro-1,5-benzothiazepin-4(5H)-one hydrochloride]: the “inhibition of pressor response following angiotensin I challenge” value in assay [2] is reported as “about 70%”. In addition, the “lowering of blood pressure” value in assay [3] was “about 35 mm Hg”.

`O=C(O)CN1C(=O)[C@@H](NC(CCc2ccccc2)C(=O)O)CSc2ccccc21` (stereo partly drawn) [Example 2, (3R)-[N-(1-carboxy-3-phenylpropyl)amino]-5-carboxymethyl-2,3-dihydro-1,5-benzothiazepin-4(5H)-one]: the IC50 in assay [1] is roughly 10 nM.
